Laboratory results: patent US8192962B2, “Processes for detecting toxic substances” (Daikin Industries, Ltd., priority 2001, dated 2012)

System: Energy system protein genes
Assay: DNA chip mRNA expression in yeast, energy system protein genes (Table 4)
Type: cell-based, Saccharomyces cerevisiae S288C
How it was run: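 Untreated cultures served as reference for log-phase S288C yeast given a growth-inhibiting, non-lethal toxicant dose for 2 h at 25° C. in YPD. Gene expression was measured on a whole-genome DNA chip from Cy3/Cy5-labeled cDNA.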

SMILES: CCCCC[C@H](O)CC(=O)CCc1ccc(O)c(OC)c1 [(13), gingerol]
- The level of expressed mRNA in the presence of chemical substance/The level of expressed mRNA in the absence of chemical substance (yeast gene YIR031C, cells incubated two hours with the chemical substance): 1.0
- The level of expressed mRNA in the presence of chemical substance/The level of expressed mRNA in the absence of chemical substance (yeast gene YJL045W, cells incubated two hours with the chemical substance): 1.6
- The level of expressed mRNA in the presence of chemical substance/The level of expressed mRNA in the absence of chemical substance (yeast gene YJL121C, cells incubated two hours with the chemical substance): 0.7
- The level of expressed mRNA in the presence of chemical substance/The level of expressed mRNA in the absence of chemical substance (yeast gene YJL216C, cells incubated two hours with the chemical substance): 1.1
- The level of expressed mRNA in the presence of chemical substance/The level of expressed mRNA in the absence of chemical substance (yeast gene YJR048W): 0.4
- The level of expressed mRNA in the presence of chemical substance/The level of expressed mRNA in the absence of chemical substance (yeast gene YJR121W, cells incubated two hours with the chemical substance): 1.0
- The level of expressed mRNA in the presence of chemical substance/The level of expressed mRNA in the absence of chemical substance (yeast gene YKL035W): 2.0
- The level of expressed mRNA in the presence of chemical substance/The level of expressed mRNA in the absence of chemical substance (yeast gene YKL060C, cells incubated two hours with the chemical substance): 1.2
- The level of expressed mRNA in the presence of chemical substance/The level of expressed mRNA in the absence of chemical substance (yeast gene YKL085W, cells incubated two hours with the chemical substance): 1.5
- The level of expressed mRNA in the presence of chemical substance/The level of expressed mRNA in the absence of chemical substance (yeast gene YKL150W): 1.8
- The level of expressed mRNA in the presence of chemical substance/The level of expressed mRNA in the absence of chemical substance (yeast gene YKR058W, cells incubated two hours with the chemical substance, 25° C., YPD medium): 0.7
- The level of expressed mRNA in the presence of chemical substance/The level of expressed mRNA in the absence of chemical substance (yeast gene YLL041C, cells incubated two hours with the chemical substance): 1.0
- The level of expressed mRNA in the presence of chemical substance/The level of expressed mRNA in the absence of chemical substance (yeast gene YLR164W, cells incubated two hours with the chemical substance): 1.0
- The level of expressed mRNA in the presence of chemical substance/The level of expressed mRNA in the absence of chemical substance (yeast gene YLR273C): 1.7
- The level of expressed mRNA in the presence of chemical substance/The level of expressed mRNA in the absence of chemical substance (yeast gene YLR354C, cells incubated two hours with the chemical substance): 1.0
- The level of expressed mRNA in the presence of chemical substance/The level of expressed mRNA in the absence of chemical substance (yeast gene YML054C): 2.8
- The level of expressed mRNA in the presence of chemical substance/The level of expressed mRNA in the absence of chemical substance (yeast gene YML087C): 1.5
- The level of expressed mRNA in the presence of chemical substance/The level of expressed mRNA in the absence of chemical substance (yeast gene YML100W): 3.8
- The level of expressed mRNA in the presence of chemical substance/The level of expressed mRNA in the absence of chemical substance (yeast gene YML120C, cells incubated two hours with the chemical substance): 1.2
- The level of expressed mRNA in the presence of chemical substance/The level of expressed mRNA in the absence of chemical substance (yeast gene YML125C): 2.2
- The level of expressed mRNA in the presence of chemical substance/The level of expressed mRNA in the absence of chemical substance (yeast gene YML129C, cells incubated two hours with the chemical substance): 1.0
- The level of expressed mRNA in the presence of chemical substance/The level of expressed mRNA in the absence of chemical substance (yeast gene YMR073C, cells incubated two hours with the chemical substance): 1.2
- The level of expressed mRNA in the presence of chemical substance/The level of expressed mRNA in the absence of chemical substance (yeast gene YMR089C): 2.3
- The level of expressed mRNA in the presence of chemical substance/The level of expressed mRNA in the absence of chemical substance (yeast gene YMR105C): 3.3
- The level of expressed mRNA in the presence of chemical substance/The level of expressed mRNA in the absence of chemical substance (yeast gene YMR205C, cells incubated two hours with the chemical substance): 1.3
- The level of expressed mRNA in the presence of chemical substance/The level of expressed mRNA in the absence of chemical substance (yeast gene YMR261C, cells incubated two hours with the chemical substance): 1.6
- The level of expressed mRNA in the presence of chemical substance/The level of expressed mRNA in the absence of chemical substance (yeast gene YMR267W, cells incubated two hours with the chemical substance, 25° C., YPD medium): 0.7
- The level of expressed mRNA in the presence of chemical substance/The level of expressed mRNA in the absence of chemical substance (yeast gene YNL037C): 1.9
- The level of expressed mRNA in the presence of chemical substance/The level of expressed mRNA in the absence of chemical substance (yeast gene YNL071W): 2.5
- The level of expressed mRNA in the presence of chemical substance/The level of expressed mRNA in the absence of chemical substance (yeast gene YNL237W): 3.2
- The level of expressed mRNA in the presence of chemical substance/The level of expressed mRNA in the absence of chemical substance (yeast gene YNL331C): 3.1
- The level of expressed mRNA in the presence of chemical substance/The level of expressed mRNA in the absence of chemical substance (yeast gene YOL126C): 2.6
- The level of expressed mRNA in the presence of chemical substance/The level of expressed mRNA in the absence of chemical substance (yeast gene YOL157C): 1.4
- The level of expressed mRNA in the presence of chemical substance/The level of expressed mRNA in the absence of chemical substance (yeast gene YOL165C): 3.7
- The level of expressed mRNA in the presence of chemical substance/The level of expressed mRNA in the absence of chemical substance (yeast gene YOR136W): 1.5
- The level of expressed mRNA in the presence of chemical substance/The level of expressed mRNA in the absence of chemical substance (yeast gene YOR178C, cells incubated two hours with the chemical substance): 1.0
- The level of expressed mRNA in the presence of chemical substance/The level of expressed mRNA in the absence of chemical substance (yeast gene YOR221C): 1.0
- The level of expressed mRNA in the presence of chemical substance/The level of expressed mRNA in the absence of chemical substance (yeast gene YOR347C): 1.8
- The level of expressed mRNA in the presence of chemical substance/The level of expressed mRNA in the absence of chemical substance (yeast gene YOR388C, cells incubated two hours with the chemical substance): 1.1
- The level of expressed mRNA in the presence of chemical substance/The level of expressed mRNA in the absence of chemical substance (yeast gene YPL031C, cells incubated two hours with the chemical substance): 1.6
- The level of expressed mRNA in the presence of chemical substance/The level of expressed mRNA in the absence of chemical substance (yeast gene YPL061W, cells incubated two hours with the chemical substance): 1.1
- The level of expressed mRNA in the presence of chemical substance/The level of expressed mRNA in the absence of chemical substance (yeast gene YPL171C): 2.4
- The level of expressed mRNA in the presence of chemical substance/The level of expressed mRNA in the absence of chemical substance (yeast gene YPL240C): 2.9
- The level of expressed mRNA in the presence of chemical substance/The level of expressed mRNA in the absence of chemical substance (yeast gene YPL271W): 1.2
- The level of expressed mRNA in the presence of chemical substance/The level of expressed mRNA in the absence of chemical substance (yeast gene YPL275W, cells incubated two hours with the chemical substance): 1.0
- The level of expressed mRNA in the presence of chemical substance/The level of expressed mRNA in the absence of chemical substance (yeast gene YPR006C): 1.8
- The level of expressed mRNA in the presence of chemical substance/The level of expressed mRNA in the absence of chemical substance (yeast gene YPR026W): 2.3
- The level of expressed mRNA in the presence of chemical substance/The level of expressed mRNA in the absence of chemical substance (yeast gene YPR048W, cells incubated two hours with the chemical substance): 0.6
